Results as given in patent US20230331739A1, “INDOLO HEPTAMYL OXIME ANALOG CRYSTAL AS PARP INHIBITOR AND METHOD FOR PREPARING SAME” (CHIA TAI TIANQING PHARMACEUTICAL GROUP CO., LTD., priority 2020, published 2023).

Legend:
[1] = test system: human breast cancer MDA-MB-436 cell xenograft tumor; test: In vivo pharmacodynamic study in subcutaneous MDA-MB-436 xenograft tumor model; set-up: species or system BALB/c nude mouse; details: for Tumor volume (day 27): Mean ± SEM; for T/C / TGI: day 27
Excerpt: Objective: To study the in vivo efficacy of the test compound in BALB/c nude mouse model with subcutaneous human breast cancer MDA-MB-436 cell xenograft tumor.
Materials: Age and body weight: female BALB/c nude mice, aged 6-8 weeks, 18-22 g. The study started after 3-7 days of adaptive feeding. The animal information card of each cage was labeled with the following information about the animals: number, sex, strain, receipt date, regime, study number, group and start of treatment. All the cages, padding and drinking water were sterilized before use. The cages, feed and drinking water were refreshed twice a week. The animals were identified with ear tags. Test samples: Nirapariband and compound 1. All the test samples were prepared with 10% DMSO+90% (20% HP-β-CD) as vehicle, and the blank control group was administered with the vehicle alone.
1. Cell culturing: Human breast cancer MDA-MB-436 cells (ATCC, Manassas, VA, catalog No.: HTB-130) were cultured in an RPMI-1640 culture medium containing 10% fetal bovine serum and 1% Anti-anti through in vitro monolayer culture in an incubator at 37° C./5% CO2. The cells were digested with trypsin-EDTA twice a week for passaging as per conventional practice. At a cell saturation of 80%-90% and a required number, the cells were collected, counted and grafted.
2. Tumor cell grafting (tumor grafting): 0.2 mL (1×10^7 cells) of MDA-MB-436 cells (along with matrigel in a volume ratio of 1:1) was subcutaneously grafting on the right back of each mouse, and the mice were randomly divided into groups for administration after the mean tumor volume was approximately 318 mm^3.
3. Daily observation of animals: the animals were monitored daily for health and death, and routine examinations include observation of the effect on tumor growth and the therapy on the daily performance of the animals, such as behavioral activities, food and water intake, change in body weight, appearance, or other abnormal conditions.
4. Tumor measurement and experimental indexes: the experimental indexes were to investigate whether the tumor growth was inhibited or delayed or the tumor was cured. Tumor diameters were measured twice weekly using a vernier caliper. The tumor volume was calculated using the following formula: V=0.5 a×b^2, where a and b represent the long diameter and short diameter of the tumor, respectively. The anti-tumor efficacy of the compound was evaluated by TGI (%) or relative tumor proliferation rate T/C (%). TGI (%) refers to the tumor growth inhibition. Calculation of TGI (%): TGI (%)=[(1−(mean tumor volume at the end of administration of a treatment group−mean tumor volume at the start of administration of the treatment group))/(mean tumor volume at the end of treatment of the solvent control group−mean tumor volume at the start of treatment of the solvent control group)]×100%. The calculation formula for relative tumor proliferation rate T/C (%) was as follows: T/C (%)=TRTV/CRTV×100% (TRTV: RTV of treatment group; CRTV: RTV of negative control group). Relative tumor volume (RTV) was calculated based on the results of tumor measurement. The calculation formula was: RTV=Vt/V0, where V0 was the mean tumor volume measured at the time of grouping and administration (i.e., do), Vt was the mean tumor volume at a certain measurement, and the data of TRTV and CRTV were obtained on the same day.
5. Statistical analysis: including mean and standard error of mean (SEM) of tumor volume at each time point in each group. […] The experimental data were analyzed using one-way ANOVA and Games-Howell method. All the data were analyzed using SPSS 17.0. p<0.05 was defined as significance.

[2] = test system: MDA-MB-231 cells with wild-type BRCA; test: Anti-proliferation study on MDA-MB-231 cells (CellTiter-Glo); type: cell-based; details: Homo sapiens, MDA-MB-231, 72 h; 3 days incubation
Experimental: Materials: test compounds; R DMEM medium; fetal bovine serum; penicillin/streptomycin antibiotic; MDA-MB-231 cells; Envision Multimode Plate Reader.
MDA-MB-231 cells were seeded in a white 96-well plate by adding 80 μL of cell suspension (containing 5000 MDA-MB-231 cells) to each well. The cell plate was incubated in a CO2 incubator overnight.
Eight concentrations were set for each compound. The test compounds were serially 3-fold diluted to the 8th concentration with a multichannel pipette, i.e., from 2 mM to 920 nM, in duplicate. 78 μL of medium was added to an intermediate plate, and the serially diluted compound was transferred to the intermediate plate at 2 μL per well. After being mixed well, the mixture was transferred to the cell plate at 20 μL per well. […] Another cell plate was provided for reading signal values on the day of compound addition and these signal values were used as Max values in data analysis. Promega CellTiter-Glo was added to the cell plate at 25 μL per well and the luminescence signals were stabilized by incubation for 10 min at room temperature. Readings were taken using a PerkinElmer Envision Multimode Plate Reader.
Promega CellTiter-Glo was added to the cell plate at 25 μL per well and the luminescence signals were stabilized by incubation for 10 min at room temperature. Readings were taken using a PerkinElmer Envision Multimode Plate Reader. […]

[3] = Metabolic stability in liver microsomes, rat; type: in vitro ADME; details: 1 μM, 0.5 mg/mL
Experimental: Objective: To test the metabolic stability of the test compound in liver microsomes of three species.
Procedures: 1 μM test compound and microsomes (0.5 mg/mL) were incubated at 37° C. in the presence of an NADPH regeneration system. Positive controls were testosterone ([…]), propylamine propiophenone (2D6 substrate) and diclofenac (2C9 substrate). At 37° C., positive controls were incubated with microsomes (0.5 mg/mL) in the presence of an NADPH regeneration system. The reaction was stopped by direct mixing of the sample with cold acetonitrile containing an internal standard at various time points (0, 5, 10, 20, 30 and 60 min). The compound and microsomes were incubated for 60 min in the absence of an NADPH regeneration system. One replicate (n=1) was set at each time point. The samples were analyzed by LC/MS/MS; the concentration of the compound was characterized by the ratio of the analyte peak area to the internal standard peak area.

C[C@]1(c2ccc(-c3[nH]c4cc(F)cc5c4c3CONC5=O)cc2)CCCN1 [Compound 1]
Tumor volume (day 27) ([1]; 12.5 mg/kg PO QD × 28 days): 377 ± 149 mm^3
T/C ([1]; 12.5 mg/kg PO QD × 28 days): 23.79%
TGI ([1]; 12.5 mg/kg PO QD × 28 days): 95.34%
Tumor volume (day 27) ([1]; 25 mg/kg PO QD × 28 days): 132 ± 32 mm^3
T/C ([1]; 25 mg/kg PO QD × 28 days): 8.31%
TGI ([1]; 25 mg/kg PO QD × 28 days): 114.69%
Tumor volume (day 27) ([1]; 50 mg/kg PO QD × 28 days): 91 ± 14 mm^3
T/C ([1]; 50 mg/kg PO QD × 28 days): 5.76%
TGI ([1]; 50 mg/kg PO QD × 28 days): 117.86%
IC50 [2]: > 10 µM
Residual content after 60 min of incubation [3]: 31.8%
